The record followed here is ChEMBL document CHEMBL6153126, “Design, Synthesis, and Activity Evaluation of Novel Bifenamide Dual-Target Antibacterial Inhibitors and Carrier Based on Infectious Microenvironment” (J Med Chem, 2025).

pIC50, pKd: −log10 of the molar value. The source made the active and inactive calls. The rule behind the calls is not given here.

For data set [1], the system named is Klebsiella pneumoniae. Briefly: Antimicrobial activity against Klebsiella pneumoniae ATCC 13883 assessed as inhibition of microbial growth incubated for 64 hrs by broth-microdilution assay. Format: functional.
In data set [2] the test system is Pseudomonas aeruginosa. Briefly: Antimicrobial activity against Pseudomonas aeruginosa ATCC 9027 assessed as inhibition of microbial growth incubated for 64 hrs by broth-microdilution assay. The data set is classed as functional.
Data set [3] has as its system Escherichia coli. In words: Antimicrobial activity against Escherichia coli ATCC 8739 assessed as inhibition of microbial growth incubated for 64 hrs by broth-microdilution assay. The data set is classed as functional. (In general: Dilution methods test growth across graded concentrations, often in twofold steps.)
Data set [4] has as its system Salmonella typhimurium. Briefly: Antimicrobial activity against Salmonella typhimurium ATCC 14028 assessed as inhibition of microbial growth incubated for 64 hrs by broth-microdilution assay. Format: functional, Salmonella enterica subsp. enterica serovar Typhimurium. Conditions: Salmonella enterica.
For data set [5], the system named is Pseudomonas aeruginosa. In words: Antimicrobial activity against Pseudomonas aeruginosa ATCC 9027 assessed as inhibition zone. Conditions: time 64 hrs. The data set is classed as functional.
For data set [6], the system named is Klebsiella pneumoniae. Briefly: Antimicrobial activity against Klebsiella pneumoniae ATCC 13883 assessed as inhibition zone. The data set is classed as functional.
Data set [7] has as its system Klebsiella pneumoniae. Briefly: Antimicrobial activity against Klebsiella pneumoniae ATCC 13883 assessed as increase in percentage of bacterial cells by flow cytometry analysis. Format: functional, organism-based. In general terms: In flow cytometry, cells or beads pass a laser one at a time.
Data set [8] concerns Klebsiella pneumoniae. In words: Bactericidal activity against Klebsiella pneumoniae ATCC 13883 assessed as reduction in survival rate by colony counting method. The data set is classed as functional.
A short description of data set [9]: Clearance in rat at 2 mg/kg, iv measured upto 24 hrs by LC-MS/MS analysis. Format: ADME, organism-based. Conditions: in vivo.
Data set [10] relates to Klebsiella pneumoniae. In words: Antibacterial activity against Klebsiella pneumoniae ATCC 13883 infected in Kunming mouse model assessed as reduction in alveolar space in lung at 2 mg/kg, iv by H and E staining based analysis. Format: functional, organism-based.
Data set [11] is described as follows: Initial plasma concentration in rat at 2 mg/kg, iv measured upto 24 hrs by LC-MS/MS analysis. The data set is classed as ADME, organism-based. Conditions: in vivo, iv, 2 mg/kg, 24 h.
A short description of data set [12]: Half life in rat at 2 mg/kg, iv measured upto 24 hrs by LC-MS/MS analysis. The data set is classed as ADME, organism-based. Conditions: in vivo.
Data set [13] in a line: Volume of distribution at steady state in rat at 2 mg/kg, iv measured upto 24 hrs by LC-MS/MS analysis. Conditions: in vivo, iv, 2 mg/kg, 24 h. The data set is classed as ADME, organism-based.
The subject of data set [14] is Klebsiella pneumoniae. In words: Induction of intracellular ROS accumulation in Klebsiella pneumoniae ATCC 13883 incubated for 12 hrs by fluorescence microscopic analysis. The data set is classed as functional, organism-based.
The nature of data set [15]: AUC (0 to t) in rat at 2 mg/kg, iv measured upto 24 hrs by LC-MS/MS analysis. Format: ADME, organism-based. Conditions: in vivo.
In data set [16] the test system is Klebsiella pneumoniae. In words: Antibacterial activity against Klebsiella pneumoniae ATCC 13883 infected in Kunming mouse model assessed as reduction in bacterial proliferation at 2 mg/kg, iv in presence of biphenyl isopropyl ester. The data set is classed as functional, organism-based.
Data set [17] concerns the target T1, UDP-3-O-acyl-N-acetylglucosamine deacetylase (Escherichia coli K-12, UniProt P0A725).
T1 sequence (P0A725 whole entry): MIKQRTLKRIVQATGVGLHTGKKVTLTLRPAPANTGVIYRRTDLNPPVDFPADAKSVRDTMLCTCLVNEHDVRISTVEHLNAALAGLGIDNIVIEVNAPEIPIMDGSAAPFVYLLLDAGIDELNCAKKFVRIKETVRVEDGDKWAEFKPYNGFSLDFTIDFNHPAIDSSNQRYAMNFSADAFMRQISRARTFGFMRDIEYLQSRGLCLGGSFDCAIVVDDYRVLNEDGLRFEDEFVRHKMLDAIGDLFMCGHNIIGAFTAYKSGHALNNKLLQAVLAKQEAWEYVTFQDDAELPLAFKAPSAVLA
Briefly: Binding affinity to Escherichia coli LpxC assessed as dissociation constant by SPR analysis. (In general: SPR reads the build-up and loss of mass on a sensor chip optically.)

In data set [18] the test system is Klebsiella pneumoniae. In words: Antibacterial activity against Klebsiella pneumoniae ATCC 13883 infected in Kunming mouse model assessed as reduction in alveolar space in lung at 2 mg/kg, iv in presence of biphenyl isopropyl ester by H and E staining based analysis. The data set is classed as functional, organism-based.
The nature of data set [19]: Binding affinity to PD-L1 (unknown origin) assessed as dissociation constant by SPR analysis. Also on record: species or system Homo sapiens.
Data set [20] addresses Programmed cell death 1 ligand 1 (Homo sapiens) (UniProt Q9NZQ7). Briefly: Binding affinity to PD-L1 (unknown origin) assessed as Change in enthalpy by ITC analysis.
The target in data set [21] is Programmed cell death protein 1/Programmed cell death 1 ligand 1 (Homo sapiens, UniProt Q9NZQ7). Briefly: Inhibition of PD-1/PD-L1 (unknown origin) protein-protein interaction preincubated for 15 mins followed by PD-1-Eu addition and measured after 90 mins by TR-FRET assay. Format: protein-complex assay.
Programmed cell death protein 1/Programmed cell death 1 ligand 1, sequence (Q15116 whole entry): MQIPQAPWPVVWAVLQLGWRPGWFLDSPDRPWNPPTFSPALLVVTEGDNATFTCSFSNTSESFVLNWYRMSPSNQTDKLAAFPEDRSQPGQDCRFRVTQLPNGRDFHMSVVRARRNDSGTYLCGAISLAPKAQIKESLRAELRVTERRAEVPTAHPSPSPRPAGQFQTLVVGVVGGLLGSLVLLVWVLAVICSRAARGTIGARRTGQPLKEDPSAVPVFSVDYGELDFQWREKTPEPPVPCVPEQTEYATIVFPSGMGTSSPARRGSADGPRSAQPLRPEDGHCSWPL
Programmed cell death protein 1/Programmed cell death 1 ligand 1, sequence (Q9NZQ7 whole entry): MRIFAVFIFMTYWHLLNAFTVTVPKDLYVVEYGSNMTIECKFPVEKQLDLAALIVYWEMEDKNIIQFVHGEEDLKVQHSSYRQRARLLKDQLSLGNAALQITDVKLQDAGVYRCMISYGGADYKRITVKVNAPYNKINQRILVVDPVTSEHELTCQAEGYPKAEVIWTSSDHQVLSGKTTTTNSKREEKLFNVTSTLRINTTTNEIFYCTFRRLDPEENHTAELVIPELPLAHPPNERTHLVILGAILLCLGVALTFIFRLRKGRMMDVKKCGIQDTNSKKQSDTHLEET
Data set [22] concerns A549. In words: Cytotoxicity against human A549 cells incubated for 24 hrs by CCK-8 assay. Format: functional, cell-based. Conditions: A549, 24 h.
Data set [23] concerns HeLa. Briefly: Cytotoxicity against human HeLa cells incubated for 24 hrs by CCK-8 assay. The data set is classed as functional, cell-based.
The target in data set [24] is Programmed cell death 1 ligand 1 (Homo sapiens) (UniProt Q9NZQ7). In words: Binding affinity to PD-L1 (unknown origin) assessed as association constant at equilibrium by ITC analysis.
Programmed cell death 1 ligand 1 (Homo sapiens), sequence (Q9NZQ7 whole entry): as above
Data set [25] addresses T1, UDP-3-O-acyl-N-acetylglucosamine deacetylase. In words: Inhibition of Escherichia coli LpxC.

With `Cc1c(CN2CCC(C(=O)NC(CO)C(=O)NO)CC2)cccc1-c1ccccc1` (configuration not stated), the MIC50 in [1] was 2 µg/mL; in [2], 4 µg/mL; in data set [3], no less than 16 µg/mL; in data set [4] it was 8 µg/mL. Further, the “inhibition zone (IZ)” value in data set [5] was 10.1 mm; in data set [6], 11.6 mm.

Regarding `COc1cc(OCc2cccc(-c3ccccc3)c2C)cc(OC)c1CNC(CO)C(=O)NO` (configuration not stated), the MIC50 in [1] was 8 µg/mL; in data set [2] it was 4 µg/mL; in [3], no less than 16 µg/mL; in data set [4] it was 4 µg/mL. Besides, the “inhibition zone (IZ)” value is on record as 8.1 mm in data set [5] and “<=6 mm” in data set [6].

For `Cc1c(CN2CCC(C(=O)NC(C(=O)NO)C(C)C)CC2)cccc1-c1ccccc1` (configuration not stated), the MIC50 in data set [1] stood at 4 µg/mL; in [2], 8 µg/mL; in [3] it was 2 µg/mL; in [4], 4 µg/mL. Also, the “inhibition zone (IZ)” value is recorded as “<=6 mm” in data set [5] and 9.5 mm in data set [6].

`C[C@H](O)[C@H](NC(=O)c1ccc(C#Cc2ccc(CN3CCOCC3)cc2)cc1)C(=O)NO`: the MIC50 in [1] was determined as 0.5 µg/mL; in [2], 1 µg/mL; in data set [3] it was 2 µg/mL; in data set [4], 0.5 µg/mL. The outcome in data set [7], in data set [10], in [14] and in data set [16] was Active. In addition, the Activity in data set [8] turned out to be 83%. The same compound registered a clearance in data set [9] of 75.6 mL/min/kg. The same compound showed a C0 in data set [11] of 332 ng/mL. Also, the half-life in data set [12] is 32.4 min. Further, the “inhibition zone (IZ)” value in data set [5] came to 13.5 mm; in data set [6], 14.2 mm. Further, the Vdss in data set [13] was found to be 1.42 L/kg. The same compound returned an AUC(0-t) at 24 h in data set [15] of 289 ng·h/mL.

With `CC(C)OC(=O)[C@@H](CO)NCc1cc(Cl)c(OCc2cccc(-c3ccccc3)c2Br)cc1OCc1cccnc1`, the figures for the pKd in data set [17] and in data set [19] were 9.40 and 9.60, respectively. For the same compound, in [18], the outcome was Active. Moreover, the deltaH in [20] turned out to be 1.13 kcal/mol.

As for `COc1cc(OCc2cccc(-c3ccccc3)c2C)cc(OC)c1CNC(C(=O)NO)C(C)C` (configuration not stated), the MIC50 in data set [1] was no less than 16 µg/mL; in [2], 8 µg/mL; in data set [3], 4 µg/mL; in [4], no less than 16 µg/mL. In addition, the figures for the “inhibition zone (IZ)” value in data set [5] and in data set [6] were 6.3 mm and “<=6 mm”, respectively.

As for `Cc1c(COc2cccc(CNC(CO)C(=O)NO)c2)cccc1-c1ccccc1` (configuration not stated), the MIC50 in data set [1] was determined as 0.5 µg/mL; in [2], 0.5 µg/mL; in [3], 0.5 µg/mL; in [4] it was 1 µg/mL. The outcome in data set [7] and in data set [14] was Active. Also, the negative-log Kd (pKd) in data set [17] is 9.06; in data set [19] it was 9.87. The pIC50 in [21] is 6.96; in data set [22], less than 4.30; in [23], less than 4.30; in data set [25] it was 5.08. Also, the “inhibition zone (IZ)” value in [5] is given as 13.8 mm; in [6], 15.2 mm. In addition, the Ka in [24] is 4.17 10^5/M. The deltaH in data set [20] came to 0.995 kcal/mol.

Regarding `CCn1cc(C(=O)O)c(=O)c2cc(F)c(N3CCNCC3)cc21` [NORFLOXACIN], the MIC50 in data set [1] was determined as 1 µg/mL; in data set [2], 1 µg/mL; in [3], 0.5 µg/mL; in data set [4], 2 µg/mL. In addition, the figures for the “inhibition zone (IZ)” value in data set [5] and in data set [6] were 14.8 mm and 15.9 mm, respectively.

Regarding `Cc1c(CN2CCC(C(=O)NC(C(=O)NO)C(C)O)CC2)cccc1-c1ccccc1` (configuration not stated), the MIC50 turned out to be 0.5 µg/mL in data set [1], 1 µg/mL in data set [2], 2 µg/mL in data set [3] and 1 µg/mL in data set [4]. For the same compound, the “inhibition zone (IZ)” value in data set [5] was determined as 14.1 mm; in [6], 15.8 mm.

Consider `Cc1c(COc2cccc(CN3CCCC3C(=O)NO)c2)cccc1-c1ccccc1` (configuration not stated), for which the MIC50 in [1] is no less than 16 µg/mL; in [2], 4 µg/mL; in data set [3], no less than 16 µg/mL; in data set [4], 4 µg/mL. Also, the “inhibition zone (IZ)” value is reported as “<=6 mm” in data set [5] and 7.2 mm in data set [6].

As for `Cc1c(COc2cccc(CNC(C(=O)NO)C(C)C)c2)cccc1-c1ccccc1` (configuration not stated), the MIC50 in data set [1] is 4 µg/mL; in [2] it was no less than 16 µg/mL; in data set [3], 8 µg/mL; in [4], 4 µg/mL. For the same compound, the “inhibition zone (IZ)” value in [5] was found to be 6.6 mm; in data set [6], 8.6 mm.

For the compound `COc1cc(OCc2cccc(-c3ccccc3)c2C)cc(OC)c1CNC(C(=O)NO)C(C)O` (configuration not stated), the MIC50 in data set [1] stood at 1 µg/mL; in [2] it was 1 µg/mL; in data set [3] it was 2 µg/mL; in [4] it was 4 µg/mL. Besides, the “inhibition zone (IZ)” value is reported as 8.9 mm in [5] and 9.4 mm in data set [6].

In the case of `Cc1c(CN2CCC(C(=O)N3CCCC3C(=O)NO)CC2)cccc1-c1ccccc1` (configuration not stated), the MIC50 amounted to 0.5 µg/mL in [1], 1 µg/mL in [2], 1 µg/mL in [3] and 2 µg/mL in data set [4]. For the same compound, the outcome in data set [7] and in data set [14] was Active. Moreover, the negative-log Kd (pKd) was 9.06 in [17] and 9.87 in [19]. Also, the pIC50 is 6.50 in [21], less than 4.30 in data set [22], less than 4.30 in data set [23] and 5.37 in data set [25]. In addition, the “inhibition zone (IZ)” value in [5] is 12.6 mm; in data set [6] it was 14.4 mm. In addition, the Ka in data set [24] is 4.59 10^5/M. For the same compound, the deltaH in data set [20] was 0.735 kcal/mol.

As to `COc1cc(OCc2cccc(-c3ccccc3)c2C)cc(OC)c1CN1CCCC1C(=O)NO` (configuration not stated), the MIC50 in data set [1] was 1 µg/mL; in [2], 1 µg/mL; in data set [3], 2 µg/mL; in data set [4] it was no less than 16 µg/mL. Also, the “inhibition zone (IZ)” value in data set [5] worked out at 9.1 mm; in data set [6] it was 11.3 mm.

For orientation: MIC50 means an inhibitory concentration at the 50% level, which refers to growth in some studies and to a panel of isolates in others. A word on the clearance: it is the rate of elimination divided by the concentration. Read a high clearance as efficient removal. The term half-life denotes the time in which the quantity being followed falls by half. In general, Vdss refers to a proportionality between amount in the body and measured concentration, not a real space. The term AUC(0-t) denotes exposure summed from dosing to a finite time, without extrapolation to infinity. Higher therefore signals more exposure. One may read the pKd as the Kd on a negative log10 scale, so that one unit is a factor of ten. What is called pIC50 is the negative decadic logarithm of the IC50, by convention in mol/L. Read a high pIC50 as a low IC50.
